Entries after “also recorded” stand apart in the source; their conditions may differ.
How the values were obtained:
[1] = tested on: tracheal tissues; experiment: ovalbumine (antigen)-induced contraction of tracheal tissues from sensitized guinea pigs; format: cell-based, guinea pig; settings: antigen ovalbumine (OA)
Text: We have used the contignasterol as defined in paragraph one of the Summary to block bronchoconstriction induced in guinea pigs. Guinea pigs were sensitized to ovalbumine (OA) that can serve as an antigen. The trachea from these animals after exposure to the antigen (OA) contracted in a similar manner as to in vivo situation.

[2] = tested on: platelets; experiment: platelet aggregation caused by platelet activating factor (PAF); format: cell-based
Text: (§1) PAF is a local mediator of thrombosis. Similarly, collagen exposure of vessel walls leads to the formation of […] clot in the vessels. Therefore, prevention of the formation of blood clots has direct implication in the treatment of thrombosis and associated cardiovascular diseases.
(§2) PAF and collagen were used at their maximal concentrations which induced 100% aggregation of platelets.

[3] = tested on: platelets; experiment: platelet aggregation caused by collagen; format: cell-based
Text: as §1, §2

[4] = tested on: allergen-induced challenge; experiment: relative potencies of different isomers of contignasterol against allergen-induced challenge
Text: Table 4 illustrates the relative potencies of different isomers of contignasterol against allergen-induced challenge.

[5] = tested on: rat mast cells; settings: induced by anti-IgE; cited from earlier work

Structure (SMILES)	inhibition at 10 µM [4] [%]	inhibition of histamine release from rat mast cells (in words) [5]	further results
CC(C)C1CC(O)OC([C@@H](C)[C@H]2CC(=O)[C@@H]3[C@@H]4[C@@H](O)[C@H](O)[C@H]5[C@@H](O)[C@H](O)CC[C@]5(C)[C@H]4CC[C@]23C)C1 (some centres unmarked) [Compound 1, contignasterol]	43	–	contraction of trachea pretreated with contignasterol after exposure to antigen (in words) [1]: did not significantly contract; also recorded: inhibited airway smooth muscle contraction; aggregation of platelets caused by PAF (in words) [2]: inhibited aggregation of platelets; aggregation of platelets caused by collagen (in words) [3]: inhibited aggregation of platelets
CC(C)C1CC(O)OC([C@@H](C)[C@H]2CC(=O)[C@H]3[C@@H]4[C@@H](O)[C@H](O)[C@H]5[C@@H](O)[C@H](O)CC[C@]5(C)[C@H]4CC[C@]23C)C1 (some centres unmarked) [Compound 2, 14-epicontignasterol]	25	–	–
COC1CC(C(C)C)CC([C@@H](C)[C@H]2CC(=O)[C@@H]3[C@@H]4[C@@H](O)[C@H](O)[C@H]5[C@@H](O)[C@H](O)CC[C@]5(C)[C@H]4CC[C@]23C)O1 (some centres unmarked) [Compound 3, Methyl-acetal Contignasterol]	12	–	–
CC(C)C[C@]1(O)C[C@@H](C)[C@H]2[C@@H]1C(=O)[C@@H]1[C@@H]3[C@@H](O)[C@H](O)[C@H]4C[C@H](O)CC[C@]4(C)[C@H]3CC[C@]21C [xestobergsterol A, 23S-16β, 23-cyclo-3α, 6α, 7β, 23-tetrahydroxy-5α, 14β-cholestan-15-one]	–	potent inhibitors of histamine release	–
CC(C)C[C@]1(O)C[C@@H](C)[C@H]2[C@@H]1C(=O)[C@@H]1[C@@H]3[C@@H](O)[C@H](O)[C@H]4C[C@H](O)[C@@H](O)[C@@H](O)[C@]4(C)[C@H]3CC[C@]21C [xestobergsterol B, 23S-16β, 23-cyclo-1β, 2β, 3α, 6α, 7β, 23-hexahydroxy-5α, 14β-cholestan-15-one]	–	potent inhibitors of histamine release	–

Source: patent publication US5646138A, “Contignasterol compounds and pharmaceutical compositions comprising the same” (University of British Columbia, priority 1992, dated 1997)
